Experimental data taken from EP0399422A1, “Benzocycloalkane derivatives and production thereof” (Takeda Chemical Industries, Ltd., priority 1989, dated 1990).
Marks after values point to notes of the source that are not given here.

Columns and labels:
[1] = test system: Acyl-CoA:cholesterol acyl transferase (ACAT); assay: Acyl-CoA:cholesterol acyl transferase (ACAT) inhibiting activity; format: biochemical, male Sprague-Dawley rats; design: tested at 1 µM; details: inhibition of labeled cholesterol ester formation at 10⁻⁶ M of the test compounds; small intestine mucosa microsome fraction
Method: An ACAT enzyme preparation was obtained from the small intestine mucosa microsome fraction from male Sprague-Dawley rats of 6 weeks of age fasted for 20 hours, as described by Heider et al. [Journal of Lipid Research, 24, 1127 (1982)].
The ACAT activity was calculated by determining the yield of a labeled cholesterol ester from [1-¹⁴C]oleoyl-CoA and endogenous cholesterol using the method of Helgerud et al. [Journal of Lipid Research, 22, 271 (1981)].
The inhibition percentages of the labeled cholesterol ester formation at 10⁻⁶ M of the test compounds are shown in Table 1 as ACAT inhibiting activity indices.

cholesterol-loaded rats = assay: Plasma cholesterol lowering activity in cholesterol-loaded rats; format: in vivo, Male Sprague-Dawley rats; details: 1% cholesterol diet containing 0.01% test compound for 4 days; dose 8.5 mg/kg/day; control group 266 + 46; p<0.01
Method: Male Sprague-Dawley rats of 7 weeks of age were fed with a 1% cholesterol diet (containing 0.5% cholic acid and 5% olive oil) for 3 days, then grouped by plasma cholesterol level and further fed with the same diet containing 0.01% test compound for 4 days. Blood samples were collected at 8:30 a.m. to 10:00 a.m. while the animals were satiated, and plasma cholesterol levels were determined enzymatically. Intakes of the compound were calculated from food intake data.

`O=C(Nc1ccc(F)cc1F)N(Cc1ccccc1Cl)C1Cc2ccccc2C1` [Example 1, N-(2-chlorobenzyl)-N′-(2,4-difluorophenyl)-N-(2-indanyl)urea] was tested, and the “% ACAT inhibition” value [1] was 84% and the Plasma cholesterol (cholesterol-loaded rats) was 128 + 47* mg/dl.
